From patent US20210323950A1, “HERBICIDALLY ACTIVE BICYCLIC BENZOYLPYRAZOLES” (Bayer Aktiengesellschaft, priority 2018, published 2021)

Assays:
Assay type in all cases: in vivo
[1] = tested on: Amaranthus retroflexus (AMARE); test: Pre-emergence herbicidal action against AMARE; details: 80 g/ha, scored visually after about 3 weeks vs untreated controls
From the text: (§1) AMARE: Amaranthus retroflexus 1. Pre-Emergence Herbicidal Action and Crop Plant Compatibility Seeds of monocotyledonous and dicotyledonous weed plants and crop plants are placed in plastic or organic planting pots and covered with soil. The compounds of the invention, formulated in the form of wettable powders (WP) or as emulsion concentrates (EC), are then applied onto the surface of the covering soil as aqueous suspension or emulsion with addition of 0.5% additive at a water application rate of […] (converted). After the treatment, the pots are placed in a greenhouse and kept under good growth conditions for the trial plants. After about 3 weeks, the effect of the preparations is scored visually in comparison with untreated controls as percentages. The tables below show the herbicidal activity of numerous compounds according to the invention against important harmful plants. For example, 100% activity=the plants have died, 0% activity=like control plants.

Stellaria media (STEME) [2] = test: Pre-emergence herbicidal action against STEME; details: 80 g/ha, scored visually after about 3 weeks vs untreated controls
From the text: as §1, with “STEME: Stellaria media” for “AMARE: Amaranthus retroflexus”

Viola tricolor (VIOTR) = test: Pre-emergence herbicidal action against VIOTR; details: 80 g/ha, scored visually after about 3 weeks vs untreated controls
From the text: as §1, with “VIOTR: Viola tricolor” for “AMARE: Amaranthus retroflexus”

[3] = tested on: Echinochloa crus-galli (ECHCG); test: Post-emergence herbicidal action against ECHCG; details: 20 g/ha, post-emergence at one-leaf stage, rated visually after about 3 weeks vs untreated controls
Experimental: (§2) ECHCG: Echinochloa crus-galli 2. Post-Emergence Herbicidal Action and Crop Plant Compatibility Seeds of monocotyledonous and dicotyledonous weeds and crop plants are placed in sandy loam in plastic or organic planting pots, covered with soil and cultivated in a greenhouse under controlled growth conditions. 2 to 3 weeks after sowing, the test plants are treated at the one-leaf stage. The compounds of the invention, formulated in the form of wettable powders (WP) or as emulsion concentrates (EC), are then sprayed onto the green parts of the plants as aqueous suspension or emulsion with addition of 0.5% additive at a water application rate of […] (converted). After the test plants had been kept in the greenhouse under optimum growth conditions for about 3 weeks, the activity of the preparations is rated visually in comparison to untreated controls. The tables below show the herbicidal activity of numerous compounds according to the invention against important harmful plants. For example, 100% activity=the plants have died, 0% activity=like control plants.

[4] = tested on: Amaranthus retroflexus (AMARE); test: Post-emergence herbicidal action against AMARE; details: 20 g/ha, post-emergence at one-leaf stage, rated visually after about 3 weeks vs untreated controls
Experimental: as §2, with “AMARE: Amaranthus retroflexus” for “ECHCG: Echinochloa crus-galli”

Stellaria media (STEME) [5] = test: Post-emergence herbicidal action against STEME; details: 20 g/ha, post-emergence at one-leaf stage, rated visually after about 3 weeks vs untreated controls
Experimental: as §2, with “STEME: Stellaria media” for “ECHCG: Echinochloa crus-galli”

Setaria viridis (SETVI) [6] = test: Pre-emergence herbicidal action against SETVI; details: 80 g/ha, scored visually after about 3 weeks vs untreated controls
From the text: as §1, with “SETVI: Setaria viridis” for “AMARE: Amaranthus retroflexus”

[7] = tested on: Abutilon theophrasti (ABUTH); test: Pre-emergence herbicidal action against ABUTH; details: 80 g/ha, scored visually after about 3 weeks vs untreated controls
From the text: as §1, with “ABUTH: Abutilon theophrasti” for “AMARE: Amaranthus retroflexus”

Setaria viridis (SETVI) [8] = test: Post-emergence herbicidal action against SETVI; details: 20 g/ha, post-emergence at one-leaf stage, rated visually after about 3 weeks vs untreated controls
Experimental: as §2, with “SETVI: Setaria viridis” for “ECHCG: Echinochloa crus-galli”

[9] = tested on: Echinochloa crus-galli (ECHCG); test: Pre-emergence herbicidal action against ECHCG; details: 80 g/ha, scored visually after about 3 weeks vs untreated controls
From the text: as §1, with “ECHCG: Echinochloa crus-galli” for “AMARE: Amaranthus retroflexus”

Cn1nc(C2CC2)c(C(=O)c2ccc(C(F)(F)F)c3c2OCS3)c1O [Example 1-112] was tested, and the “Pre-emergence action against AMARE” value [1] was 100%, the “Pre-emergence action against STEME” value (Stellaria media (STEME) [2]) was 90% and the “Pre-emergence action against VIOTR” value (Viola tricolor (VIOTR)) was 90%. For the same compound, the “Post-emergence action against ECHCG” value [3] was 80%, the “Post-emergence action against AMARE” value [4] was 100% and the “Post-emergence action against STEME” value (Stellaria media (STEME) [5]) was 80%.
CCn1ncc(C(=O)c2ccc(C(F)(F)C(F)(F)F)c3c2OCS3)c1O [Example 1-131] was tested, and the “Pre-emergence action against SETVI” value (Setaria viridis (SETVI) [6]) was 100%, the “Pre-emergence action against ABUTH” value [7] was 100% and the “Pre-emergence action against AMARE” value [1] was 100%. The “Pre-emergence action against STEME” value (Stellaria media (STEME) [2]) was 90%, the “Pre-emergence action against VIOTR” value (Viola tricolor (VIOTR)) was 100% and the “Post-emergence action against ECHCG” value [3] was 80%. For the same compound, the “Post-emergence action against SETVI” value (Setaria viridis (SETVI) [8]) was 80%.
For Cc1nn(C)c(O)c1C(=O)c1ccc(C(F)(F)F)c2c1SCS2(=O)=O [Example 1-93], the “Pre-emergence action against AMARE” value [1] was 100%, the “Pre-emergence action against STEME” value (Stellaria media (STEME) [2]) was 90% and the “Post-emergence action against ECHCG” value [3] was 80%. The “Post-emergence action against AMARE” value [4] was 90%.
In the case of Cc1nn(C)c(O)c1C(=O)c1ccc(C(F)(F)F)c2c1SCCS2 [Example 1-70], the “Pre-emergence action against AMARE” value [1] is reported as 100%, the “Pre-emergence action against STEME” value (Stellaria media (STEME) [2]) is reported as 100% and the “Pre-emergence action against VIOTR” value (Viola tricolor (VIOTR)) is reported as 90%. For the same compound, the “Post-emergence action against AMARE” value [4] was 90% and the “Post-emergence action against STEME” value (Stellaria media (STEME) [5]) was 80%.
In the case of CCn1ncc(C(=O)c2ccc(C(F)(F)F)c3c2SCS3(=O)=O)c1O [Example 1-89], the “Pre-emergence action against ABUTH” value [7] is reported as 90%, the “Pre-emergence action against AMARE” value [1] is reported as 100% and the “Pre-emergence action against STEME” value (Stellaria media (STEME) [2]) is reported as 100%. For the same compound, the “Post-emergence action against AMARE” value [4] was 90% and the “Post-emergence action against STEME” value (Stellaria media (STEME) [5]) was 80%.
In the case of Cn1ncc(C(=O)c2ccc(C(F)(F)F)c3c2SCS3)c1O [Example 1-58], the “Pre-emergence action against AMARE” value [1] is reported as 80%, the “Pre-emergence action against STEME” value (Stellaria media (STEME) [2]) is reported as 90% and the “Pre-emergence action against VIOTR” value (Viola tricolor (VIOTR)) is reported as 100%. For the same compound, the “Post-emergence action against SETVI” value (Setaria viridis (SETVI) [8]) was 80%, the “Post-emergence action against AMARE” value [4] was 90% and the “Post-emergence action against STEME” value (Stellaria media (STEME) [5]) was 80%.
For Cn1ncc(C(=O)c2ccc(C(F)(F)F)c3c2SCCS3)c1O [Example 1-60], the “Pre-emergence action against AMARE” value [1] was 100%, the “Pre-emergence action against STEME” value (Stellaria media (STEME) [2]) was 90% and the “Pre-emergence action against VIOTR” value (Viola tricolor (VIOTR)) was 100%. For the same compound, the “Post-emergence action against AMARE” value [4] was 90% and the “Post-emergence action against STEME” value (Stellaria media (STEME) [5]) was 80%.
For Cn1ncc(C(=O)c2ccc(C(F)(F)C(F)(F)F)c3c2OCS3(=O)=O)c1O [Example 1-130], the “Pre-emergence action against AMARE” value [1] was 100%, the “Pre-emergence action against STEME” value (Stellaria media (STEME) [2]) was 100% and the “Post-emergence action against AMARE” value [4] was 100%. For the same compound, the “Post-emergence action against STEME” value (Stellaria media (STEME) [5]) was 90%.
With CCn1ncc(C(=O)c2ccc(C(F)(F)F)c3c2SCCS3)c1O [Example 1-65] the “Pre-emergence action against ECHCG” value [9] was 80%, the “Pre-emergence action against SETVI” value (Setaria viridis (SETVI) [6]) was 90% and the “Pre-emergence action against AMARE” value [1] was 100%. The “Pre-emergence action against STEME” value (Stellaria media (STEME) [2]) was 100%, the “Pre-emergence action against VIOTR” value (Viola tricolor (VIOTR)) was 100% and the “Post-emergence action against ECHCG” value [3] was 80%. For the same compound, the “Post-emergence action against SETVI” value (Setaria viridis (SETVI) [8]) was 100% and the “Post-emergence action against AMARE” value [4] was 80%.
For Cc1nn(C)c(O)c1C(=O)c1ccc(C(F)(F)F)c2c1OCS2 [Example 1-23], the “Pre-emergence action against SETVI” value (Setaria viridis (SETVI) [6]) was 100%, the “Pre-emergence action against ABUTH” value [7] was 100% and the “Pre-emergence action against AMARE” value [1] was 80%. The “Pre-emergence action against STEME” value (Stellaria media (STEME) [2]) was 100%, the “Post-emergence action against AMARE” value [4] was 100% and the “Post-emergence action against STEME” value (Stellaria media (STEME) [5]) was 80%.
